Data: PMC8092340 (Oncotarget, 2021)
Read-outs that look alike come from different tables or passages of the source.

Key:
alt-NHEJ = assay: EJ-DR 384-well imaging assay, alt-NHEJ (RFP) readout
From the text: (§4) The EJ-DR system was made in the U2OS cell line, which provides a simultaneous read-out of alt-NHEJ and HR activity in cells in response to induced DSBs. The cell line consists of a repair template and a reporter vector. When both these elements are chromosomally integrated, cleavage of a restriction enzyme site in the repair template, induced by ligand addition, causes a DSB. Depending on which DSB repair pathway is utilized, cells either express GFP if HR is used to repair the break site using the downstream homology template near the restriction enzyme site, or RFP if alt-NHEJ is involved in ligation of the cut ends.
(§5) An overview of the workflow of this assay is presented in Figure 1A, which starts with the addition of the test compounds and DSB ligands, followed by a media wash 24 hours later to terminate DSB induction, and then live cell imaging 96 hours later. After live cell imaging, we quantify the individual intensities of GFP and RFP signal in cells using the IN Cell imager. We then use the intensity measurements of individual cells in each channel and plot these intensities as a histogram to threshold out baseline levels of GFP and RFP intensity in the absence of ligands (Figure 1B and 1C). After applying the threshold, the percent of GFP and RFP-positive cells is calculated as a readout of induction of HR and alt-NHEJ activity, respectively.
(§6) In addition to quantifying HR and alt-NHEJ activities, cytotoxicity in the absence of DSB ligands (CT) was also evaluated by quantifying the number of Hoeschst 33342-stained cells, allowing us to better understand the margin between on-target and presumable off-target, DNA repair-independent effects. IC50 values of HR inhibition, alt-NHEJ inhibition, and CT were used to calculate the “selectivity index” (SI) (defined as the ratio of CT IC50/alt-NHEJ IC50) and alt-NHEJ selectivity defined as HR IC50/alt-NHEJ IC50.
(§7) The EJ-DR cell line was created in the U2OS cells (a human osteosarcoma cell line), and contained a stably integrated EJ-RFP plasmid to measure alt-NHEJ repair and a DR-GFP plasmid to measure HR repair, and has been previously described [9]. The EJ-DR cell line was cultured in high glucose Dulbecco’s modified Eagle’s medium (DMEM; Thermo Fisher Scientific) with L-glutamine containing 10% tetracycline-free (tet-free) fetal bovine serum (FBS; Takara Bio Inc. and Atlanta Biologics) and 1% Penicillin Streptomycin (Thermo Fisher Scientific). Tet-free FBS was used to prevent any expression of the tetracycline-inducible EJ-RFP system from residual tetracycline found in most commercially available FBS. All cells were maintained at 37°C with 5% CO2.
The EJ-DR cells were plated in 384-well imaging plates at 2500 cells/well. 24 hours later, the DSB ligands, Triamcinolone Acetonide (TA; Sigma-Aldrich Co., LLC) and Shield-1 (Takara Bio Inc.), responsible for inducing the DSBs, were added for a final concentration of 100 nM TA and 1 μM Shield-1. Test compounds were also added at the same time using Echo 550 Acoustic Dispenser (Labcyte). A separate plate was seeded to test for cytotoxicity of the test compounds in the absence of the DSB ligands. […] The DSB ligands were washed out 24 hours after addition. 96 hours after addition of the ligands and test compounds, the media was washed off and cells were incubated with Hoechst nuclear stain in Live Cell Imaging Solution (Thermo Fisher Scientific). Plates were rinsed and prepared for immediate live cell imaging using GE IN Cell 2200 (Cytiva Life Sciences).

HR = assay: EJ-DR 384-well imaging assay, HR (GFP) readout; conditions: read-out: HR IC50
From the text: as §4, §5, §6, §7
The EJ-DR cells were plated in 384-well imaging plates at 2500 cells/well. […]

EJ-DR U2OS cells = assay: Cytotoxicity in the absence of DSB ligands (CT), Hoechst cell count; format: cell-based, human; conditions: Supplementary Table 2, mean ± SEM of four technical replicates
Experimental: (§8) In addition to quantifying HR and alt-NHEJ activities, cytotoxicity in the absence of DSB ligands (CT) was also evaluated by quantifying the number of Hoeschst 33342-stained cells, allowing us to better understand the margin between on-target and presumable off-target, DNA repair-independent effects. IC50 values of HR inhibition, alt-NHEJ inhibition, and CT were used to calculate the “selectivity index” (SI) (defined as the ratio of CT IC50/alt-NHEJ IC50) and alt-NHEJ selectivity defined as HR IC50/alt-NHEJ IC50. […] (Figure 1E).
(§9) The EJ-DR cell line was cultured in high glucose Dulbecco’s modified Eagle’s medium (DMEM; Thermo Fisher Scientific) with L-glutamine containing 10% tetracycline-free (tet-free) fetal bovine serum (FBS; Takara Bio Inc. and Atlanta Biologics) and 1% Penicillin Streptomycin (Thermo Fisher Scientific). […] All cells were maintained at 37°C with 5% CO2.
(§10) The EJ-DR cells were plated in 384-well imaging plates at 2500 cells/well. 24 hours later, the DSB ligands, Triamcinolone Acetonide (TA; Sigma-Aldrich Co., LLC) and Shield-1 (Takara Bio Inc.), responsible for inducing the DSBs, were added for a final concentration of 100 nM TA and 1 μM Shield-1. Test compounds were also added at the same time using Echo 550 Acoustic Dispenser (Labcyte). A separate plate was seeded to test for cytotoxicity of the test compounds in the absence of the DSB ligands. […] The DSB ligands were washed out 24 hours after addition. 96 hours after addition of the ligands and test compounds, the media was washed off and cells were incubated with Hoechst nuclear stain in Live Cell Imaging Solution (Thermo Fisher Scientific). Plates were rinsed and prepared for immediate live cell imaging using GE IN Cell 2200 (Cytiva Life Sciences). Images were analyzed using InCell Analyzer software (Cytiva Life Sciences). Nuclei were segmented based on the Hoechst staining, and the intensity of the GFP and RFP signals in control populations were measured and binned into histograms to determine signal intensity threshold. The GFP and RFP intensity of all wells was then analyzed, and the percent of positive cells with GFP and RFP intensity above the threshold was calculated to determine the induction of signal. The DAPI cell counts were used to determine the relative cytotoxicity of test compounds in the absence of induced DNA damage.

[1] = as above; format: cell-based, human; conditions: human, EJ-DR U2OS cells, no DSB ligands
Experimental: as §8, §9, §10

Human hERG (Kv11.1) = biological target: T1, Human hERG (Kv11.1) (Homo sapiens, UniProt Q12809); assay: Automated hERG inhibition patch clamp assay; format: cell-based; conditions: for IC50: patch clamp, CHO-K1 cells; for SIhERG (hERG IC50/alt-NHEJ IC50), called fold reduction in hERG potency: ratio
T1 construct: host or cells: CHO-K1
Experimental: Automated whole cell voltage clamp hERG inhibition assays were performed in Human hERG (Kv11.1) expressed in CHO-K1 cells optimized for automated patch clamp studies by Sophion Bioscience A/S [47].

CYP3A4 = biological target: T2, CYP3A4 (Homo sapiens, UniProt P08684); assay: Cytochrome P450 inhibition assay in human liver microsomes, CYP3A4; format: in vitro ADME; conditions: for IC50 / selectivity ratio: human liver microsomes; for selectivity ratio: human, read-out: SICYP 3A4 (selectivity index of CYP, CYP3A4 IC50 to alt-NHEJ IC50), called fold decrease in CYP3A4 inhibition
T2 construct: tissue Eurofins Scientific; host or cells: human liver microsomes
Experimental: (§1) CYP inhibition assays were performed by Eurofins Scientific. Test compounds were incubated with human liver microsomes, followed by compound detection using high performance liquid chromatography with tandem mass spectrometry (HPLC-MS/MS).

CYP2D6 = biological target: T3, CYP2D6 (Homo sapiens, UniProt P10635); assay: Cytochrome P450 inhibition assay in human liver microsomes, CYP2D6; format: in vitro ADME; conditions: for IC50 / selectivity ratio: human liver microsomes; for selectivity ratio: human, read-out: SICYP 2D6 (selectivity index of CYP, CYP2D6 IC50 to alt-NHEJ IC50), called fold decrease in CYP2D6 inhibition
T3 construct: tissue Eurofins Scientific; host or cells: human liver microsomes
Experimental: as §1

[2] = In vivo pharmacokinetic study, brain tissue
Experimental: (§2) These measurements were used to calculate various pharmacokinetic parameters critical to bioavailability including time to reach maximum concentration (tmax), maximum concentration achieved (Cmax), and half-life (t1/2) (Figure 5C, 5D, Supplementary Table 1).
(§3) Compound concentrations were measured at these time-points using Liquid Chromatography with tandem mass spectrometry (LC-MS-MS). Pharmacokinetic studies were performed by orally dosing test compounds at 30 mg/kg dissolved in 50% PEG400 and 50% water in female athymic nude mice. Plasma and brain tissue concentration were measured using mass spectrometry (MS).

T type Cav 3.1 = biological target: T4, T type Cav 3.1 (Homo sapiens, UniProt O43497); assay: Calcium channel blocking study, T-type Cav3.1; format: cell-based; conditions: HEK293 cells stably expressing the channel
T4 construct: host or cells: HEK293
Experimental: (§11) Calcium channel blocking studies were performed by Charles River Laboratories in Chinese Hamster Ovary (CHO) and HEK293 cell lines stably expressing L-Type and T-type calcium channels, respectively, under tetracycline induction in accordance with a previously published study [46]. Data acquisition and analysis was performed using the IonWorks Quattro™ or Barracuda system software (Molecular Devices Corporation).

L type Cav 1.2 = biological target: T5, L type Cav 1.2 (Homo sapiens, UniProt Q13936); assay: Calcium channel blocking study, L-type; format: cell-based; conditions: CHO cells stably expressing the channel
T5 construct: host or cells: CHO
Experimental: as §11

T type Cav 3.2 = biological target: T6, T type Cav 3.2 (Homo sapiens, UniProt O95180); assay: Calcium channel blocking study, T-type Cav3.2; format: cell-based; conditions: HEK293 cells stably expressing the channel
T6 construct: host or cells: HEK293
Experimental: as §11

[3] = In vivo pharmacokinetic study, plasma
Experimental: as §2, §3

T type Cav 3.3 = biological target: T7, T type Cav 3.3 (Homo sapiens, UniProt Q9P0X4); assay: Calcium channel blocking study, T-type Cav3.3; format: cell-based; conditions: HEK293 cells stably expressing the channel
T7 construct: host or cells: HEK293
Experimental: as §11

[4] = Homo sapiens, U2OS, read-out: alt-NHEJ IC50
[5] = figures, read-out: CT IC50 (cytotoxicity)
[6] = oral 30 mg/kg, female athymic nude mice
[7] = Homo sapiens, read-out: nc-EJ IC50
[8] = Table 1, read-out: Cytotoxicity IC50
[9] = oral 30 mg/kg, female athymic nude mice, YU252222 given as methyl ester prodrug
[10] = female, athymic nude, mouse, in vivo, po, 30 mg/kg

T3 sequence (P10635 whole entry): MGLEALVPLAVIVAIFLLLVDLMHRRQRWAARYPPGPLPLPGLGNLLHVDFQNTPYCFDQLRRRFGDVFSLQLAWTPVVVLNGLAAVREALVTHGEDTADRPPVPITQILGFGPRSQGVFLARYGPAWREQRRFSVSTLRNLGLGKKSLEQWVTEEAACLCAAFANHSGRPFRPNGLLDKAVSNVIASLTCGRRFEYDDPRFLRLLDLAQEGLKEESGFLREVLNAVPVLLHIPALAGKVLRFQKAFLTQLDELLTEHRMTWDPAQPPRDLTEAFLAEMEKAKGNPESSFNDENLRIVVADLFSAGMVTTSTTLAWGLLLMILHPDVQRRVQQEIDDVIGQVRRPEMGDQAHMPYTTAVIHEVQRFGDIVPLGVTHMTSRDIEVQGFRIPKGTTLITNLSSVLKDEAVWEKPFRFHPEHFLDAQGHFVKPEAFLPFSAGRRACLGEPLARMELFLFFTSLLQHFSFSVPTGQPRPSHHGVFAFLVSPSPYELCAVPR
T2 sequence (P08684 whole entry): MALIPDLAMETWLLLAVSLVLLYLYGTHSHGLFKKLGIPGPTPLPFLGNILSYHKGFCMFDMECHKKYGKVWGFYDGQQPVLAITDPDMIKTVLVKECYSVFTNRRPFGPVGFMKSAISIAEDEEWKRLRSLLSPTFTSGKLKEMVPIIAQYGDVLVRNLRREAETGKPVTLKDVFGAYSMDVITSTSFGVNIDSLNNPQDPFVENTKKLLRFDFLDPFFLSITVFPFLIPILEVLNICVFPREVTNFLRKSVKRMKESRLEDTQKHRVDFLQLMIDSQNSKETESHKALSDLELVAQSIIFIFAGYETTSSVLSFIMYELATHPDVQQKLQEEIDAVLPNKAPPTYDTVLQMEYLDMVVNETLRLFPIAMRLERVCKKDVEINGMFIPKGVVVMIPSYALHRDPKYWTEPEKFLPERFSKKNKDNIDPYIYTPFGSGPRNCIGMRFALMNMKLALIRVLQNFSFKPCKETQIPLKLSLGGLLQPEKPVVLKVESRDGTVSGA
T1 sequence (Q12809 whole entry): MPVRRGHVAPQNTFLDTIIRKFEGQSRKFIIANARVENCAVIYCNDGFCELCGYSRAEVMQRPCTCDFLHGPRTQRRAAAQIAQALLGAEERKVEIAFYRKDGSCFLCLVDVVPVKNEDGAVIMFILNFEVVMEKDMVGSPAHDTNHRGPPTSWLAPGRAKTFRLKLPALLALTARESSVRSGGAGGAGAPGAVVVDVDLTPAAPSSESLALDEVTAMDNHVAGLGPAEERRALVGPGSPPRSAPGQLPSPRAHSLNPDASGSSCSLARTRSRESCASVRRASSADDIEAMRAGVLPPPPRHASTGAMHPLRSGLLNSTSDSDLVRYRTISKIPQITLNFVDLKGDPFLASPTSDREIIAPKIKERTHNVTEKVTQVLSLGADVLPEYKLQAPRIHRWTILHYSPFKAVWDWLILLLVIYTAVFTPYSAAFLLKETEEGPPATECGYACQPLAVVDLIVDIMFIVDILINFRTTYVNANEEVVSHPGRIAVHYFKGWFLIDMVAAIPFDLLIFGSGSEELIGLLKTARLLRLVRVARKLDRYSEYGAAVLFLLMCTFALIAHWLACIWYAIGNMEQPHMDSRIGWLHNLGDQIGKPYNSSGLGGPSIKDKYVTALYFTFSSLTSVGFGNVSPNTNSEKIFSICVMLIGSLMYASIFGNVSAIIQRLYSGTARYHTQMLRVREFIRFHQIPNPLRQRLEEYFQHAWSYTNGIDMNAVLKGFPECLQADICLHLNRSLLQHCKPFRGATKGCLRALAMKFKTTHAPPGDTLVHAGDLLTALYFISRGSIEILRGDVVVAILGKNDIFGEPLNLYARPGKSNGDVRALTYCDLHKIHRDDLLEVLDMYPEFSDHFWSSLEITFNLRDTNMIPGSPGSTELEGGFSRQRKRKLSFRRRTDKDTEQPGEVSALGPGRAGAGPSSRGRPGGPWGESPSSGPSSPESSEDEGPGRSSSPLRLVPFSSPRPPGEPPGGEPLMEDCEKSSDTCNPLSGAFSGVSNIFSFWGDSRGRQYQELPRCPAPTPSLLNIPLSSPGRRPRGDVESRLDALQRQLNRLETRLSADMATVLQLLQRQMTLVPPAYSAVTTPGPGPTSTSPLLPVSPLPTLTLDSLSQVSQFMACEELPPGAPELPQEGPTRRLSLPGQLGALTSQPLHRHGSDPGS
T7 sequence (Q9P0X4 whole entry): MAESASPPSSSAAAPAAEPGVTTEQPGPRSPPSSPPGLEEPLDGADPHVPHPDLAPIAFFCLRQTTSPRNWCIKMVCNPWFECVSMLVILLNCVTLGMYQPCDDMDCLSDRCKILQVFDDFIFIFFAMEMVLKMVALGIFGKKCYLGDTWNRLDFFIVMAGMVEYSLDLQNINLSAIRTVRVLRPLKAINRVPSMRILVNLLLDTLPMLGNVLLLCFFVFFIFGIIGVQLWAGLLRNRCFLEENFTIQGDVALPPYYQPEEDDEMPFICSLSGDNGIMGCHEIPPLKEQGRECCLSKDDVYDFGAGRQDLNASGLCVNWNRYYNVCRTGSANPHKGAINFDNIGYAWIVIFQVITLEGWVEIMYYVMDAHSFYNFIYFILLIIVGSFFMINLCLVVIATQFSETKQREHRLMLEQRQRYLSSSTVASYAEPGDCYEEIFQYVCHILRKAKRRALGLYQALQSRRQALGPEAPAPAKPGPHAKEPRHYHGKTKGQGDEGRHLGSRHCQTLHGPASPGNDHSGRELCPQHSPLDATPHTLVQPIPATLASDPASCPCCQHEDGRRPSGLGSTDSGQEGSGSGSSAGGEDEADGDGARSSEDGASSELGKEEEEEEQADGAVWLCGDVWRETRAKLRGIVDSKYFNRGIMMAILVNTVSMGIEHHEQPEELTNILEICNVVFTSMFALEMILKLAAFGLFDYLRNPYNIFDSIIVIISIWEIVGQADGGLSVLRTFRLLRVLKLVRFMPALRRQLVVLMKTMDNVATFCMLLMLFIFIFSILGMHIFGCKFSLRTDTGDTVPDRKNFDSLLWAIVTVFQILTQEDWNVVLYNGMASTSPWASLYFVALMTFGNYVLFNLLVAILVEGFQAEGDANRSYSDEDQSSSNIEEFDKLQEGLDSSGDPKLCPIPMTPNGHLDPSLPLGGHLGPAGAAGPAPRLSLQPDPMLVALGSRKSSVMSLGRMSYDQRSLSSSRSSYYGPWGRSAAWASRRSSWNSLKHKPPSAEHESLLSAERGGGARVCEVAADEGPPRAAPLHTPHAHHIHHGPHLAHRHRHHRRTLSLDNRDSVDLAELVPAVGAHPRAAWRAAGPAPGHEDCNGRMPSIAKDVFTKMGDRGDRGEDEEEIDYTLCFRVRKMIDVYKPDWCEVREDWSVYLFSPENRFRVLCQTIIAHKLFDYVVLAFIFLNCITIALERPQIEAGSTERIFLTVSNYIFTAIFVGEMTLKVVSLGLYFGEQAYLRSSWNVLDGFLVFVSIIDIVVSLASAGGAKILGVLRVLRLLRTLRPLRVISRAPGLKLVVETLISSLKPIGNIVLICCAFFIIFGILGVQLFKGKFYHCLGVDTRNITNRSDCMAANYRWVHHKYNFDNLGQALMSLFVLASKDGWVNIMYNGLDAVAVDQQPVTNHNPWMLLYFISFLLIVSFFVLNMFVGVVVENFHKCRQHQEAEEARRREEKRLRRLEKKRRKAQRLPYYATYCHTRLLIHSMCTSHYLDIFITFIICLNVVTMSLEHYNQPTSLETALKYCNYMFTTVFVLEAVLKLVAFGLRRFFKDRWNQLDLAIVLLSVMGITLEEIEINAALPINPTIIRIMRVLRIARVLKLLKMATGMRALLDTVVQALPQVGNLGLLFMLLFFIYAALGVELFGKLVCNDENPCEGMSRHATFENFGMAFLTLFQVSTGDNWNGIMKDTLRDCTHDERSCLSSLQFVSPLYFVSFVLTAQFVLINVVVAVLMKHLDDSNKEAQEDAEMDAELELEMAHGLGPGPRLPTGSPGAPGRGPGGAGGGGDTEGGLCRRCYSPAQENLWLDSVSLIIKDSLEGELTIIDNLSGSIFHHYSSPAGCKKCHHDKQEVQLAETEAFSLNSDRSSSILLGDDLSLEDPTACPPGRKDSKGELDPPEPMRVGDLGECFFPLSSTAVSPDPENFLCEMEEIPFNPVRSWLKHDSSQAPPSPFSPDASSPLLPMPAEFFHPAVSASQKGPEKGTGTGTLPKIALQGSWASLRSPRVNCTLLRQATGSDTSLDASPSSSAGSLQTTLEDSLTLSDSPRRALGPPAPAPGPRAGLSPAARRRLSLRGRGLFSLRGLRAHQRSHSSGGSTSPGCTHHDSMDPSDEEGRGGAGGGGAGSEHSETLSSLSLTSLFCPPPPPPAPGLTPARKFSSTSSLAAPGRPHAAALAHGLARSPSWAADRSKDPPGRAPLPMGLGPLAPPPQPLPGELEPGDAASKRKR

For CC(=O)c1c(C)c2cnc(Nc3ccc(N4CCNCC4)cn3)nc2n(C2CCCC2)c1=O [Pablociclib], the “Selectivity Index (HR IC50/alt-NHEJ IC50)” value (alt-NHEJ; ratio, Supplementary Table 2) was 1.50, the IC50 (alt-NHEJ; read-out: alt-NHEJ IC50, EJ-DR assay, Supplementary Table 2, mean ± SEM of four technical replicates) was 0.04 ± 0.01 µM and the IC50 (HR; EJ-DR assay, Supplementary Table 2, mean ± SEM of four technical replicates) was 0.06 ± 0.01 µM. For the same molecule, the IC50 (EJ-DR U2OS cells) was 1.37 ± 0.36 µM.

For CC(C)C1c2ccccc2CCN1C(=O)CC1CCN(C(=O)OC(C)(C)C)CC1 (stereo not shown) [YU241542], the IC50 (alt-NHEJ; [4]) was 41.3 µM, the “selectivity index SI (CT IC50/alt-NHEJ IC50)” value (alt-NHEJ; ratio) was over 1.45 and the IC50 at 96 h [1, 5] was over 60 µM.

With CC(C)[C@H]1c2ccc(F)cc2CC[C@]1(O)CC(=O)N(C)CCCc1nc2ccccc2[nH]1 [YU241551] the IC50 (alt-NHEJ; [4]) was over 60 µM, the “selectivity index SI (CT IC50/alt-NHEJ IC50)” value (alt-NHEJ; ratio) was over 1 and the IC50 at 96 h [1, 5] was over 60 µM.

In the case of CC(C)[C@H]1c2ccc(F)cc2CC[C@]1(O)CCN(C)CC(O)c1ccccc1 (stereo partly shown) [YU241553], the IC50 (alt-NHEJ; [4]) is reported as 8.87 µM, the “selectivity index SI (CT IC50/alt-NHEJ IC50)” value (alt-NHEJ; ratio) is reported as 2.71 and the IC50 at 96 h [1, 5] is reported as 24 µM.

In the case of CC(C)[C@H]1c2ccc(F)cc2CC[C@]1(O)CCN1C[C@H](Oc2nccc3ccccc23)C[C@H]1CO [YU252223], the IC50 (Human hERG (Kv11.1)) is reported as 6.8 µM, the “SIhERG (hERG IC50/alt-NHEJ IC50), called fold reduction in hERG potency” value (Human hERG (Kv11.1)) is reported as 4.14 and the IC50 (alt-NHEJ; [4]) is reported as 1.64 µM.

For COC[C@@H]1C[C@@H](Oc2nccc3ccccc23)CN1CC[C@@]1(O)CCc2cc(F)ccc2[C@@H]1C(C)C [YU252373], the IC50 (Human hERG (Kv11.1)) was 9.8 µM, the “SIhERG (hERG IC50/alt-NHEJ IC50), called fold reduction in hERG potency” value (Human hERG (Kv11.1)) was 5.76 and the IC50 (alt-NHEJ; [4]) was 1.7 µM.

Molecule COCC(=O)OC1(CCN2CC(Oc3nccc4ccccc34)CC2CO)CCc2cc(F)ccc2C1C(C)C (stereo not shown) [YU252376] has an IC50 (alt-NHEJ; [4]) of 1.1 µM, an IC50 (CYP3A4) of 12.6 µM and a selectivity ratio (CYP3A4; ratio) of 11.4. For the same molecule, the IC50 (CYP2D6) was 3.5 µM, the selectivity ratio (CYP2D6; ratio) was about 3 and the “SICYP 2D6 (selectivity index of CYP, CYP2D6 IC50 to alt-NHEJ IC50), called fold decrease in CYP2D6 inhibition” value (CYP2D6; ratio) was 3.18.

In the case of CC(C)C1c2ccc(F)cc2CCC1(O)CCN1CC(Oc2ccc(Cl)cn2)CC1CO (stereo not shown) [YU252377], the “brain exposure” value [2, 6] is reported as “did not achieve detectable brain exposure”, the IC50 (T type Cav 3.1) is reported as 5.3 µM and the IC50 (Human hERG (Kv11.1)) is reported as 6.43 µM. The “SIhERG (hERG IC50/alt-NHEJ IC50), called fold reduction in hERG potency” value (Human hERG (Kv11.1)) was 4.20, the IC50 (alt-NHEJ; [4]) was 1.53 µM and the IC50 (alt-NHEJ; [7]) was 1.5 µM. For the same molecule, the IC50 (HR; Homo sapiens) was over 60 µM, the IC50 (L type Cav 1.2) was 6.3 µM and the IC50 at 96 h [1, 8] was 14.8 µM. It also gave an IC50 (T type Cav 3.2) of 5.6 µM, a half-life ([3]; female, athymic nude, mouse, plasma, po, 30 mg/kg) of 1.81 h and a Cmax ([3]; female, athymic nude, mouse, plasma, po, 30 mg/kg, Maximum concentration (Cmax), oral 30 mg/kg, female athymic nude mice, YU252222 given as methyl ester prodrug) of 68.9 ng/mL. For the same molecule, the “% AUC Extrapolation” value [3, 6] was 1.1%, the “AUC(0-x)/Dose” value [3, 6] was 5.83 ng·h/mL/mg/kg and the Cmax/Dose [3, 6] was 2.30 ng/mL/mg/kg. For the same molecule, the “Time at which Cmax was observed (tmax)” value [3, 6] was 1.0 h, the “Area under concentration vs time curve (AUC) (0-x)” value [3, 9] was 175 ng·h/mL and the “Maximum concentration (Cmax)” value ([3]; oral 30 mg/kg, female athymic nude mice, YU252222 given as methyl ester prodrug, 30 mg/kg) was under 100 ng/mL. It also gave an IC50 (T type Cav 3.3) of 8.2 µM.

In the case of CC(C)C(C(=O)NCCCN1CC=C(c2ccc(Cl)cc2)CC1)c1ccc(F)cc1 (stereo not shown) [YU252386], the half-life [2, 10] is reported as about 2.5 h, the “brain concentration relative to the alt-NHEJ IC50” value [2, 6] is reported as ~ 3 fold and the “brain exposure compared to mibefradil” value [2, 6] is reported as ~ 8 fold. For the same molecule, the “percent coverage of the in vitro alt-NHEJ IC50 at the Cmax in the brain” value [2, 6] was 300%, the IC50 (T type Cav 3.1) was 0.9 µM and the IC50 (alt-NHEJ; [4]) was 1.06 µM. It also gave an IC50 (alt-NHEJ; [7]) of 1.1 µM, an IC50 (CYP3A4) of 17.9 µM and a selectivity ratio (CYP3A4; ratio) of 16.9. For the same molecule, the “SICYP 3A4 (selectivity index of CYP, CYP3A4 IC50 to alt-NHEJ IC50), called fold decrease in CYP3A4 inhibition” value (CYP3A4; ratio) was ~ 17, the IC50 (CYP2D6) was 0.87 µM and the selectivity ratio (CYP2D6; ratio) was 0.82. It also gave an IC50 (HR; Homo sapiens) of over 60 µM, an IC50 (L type Cav 1.2) of 5.6 µM and an IC50 at 96 h [1, 8] of 17.9 µM. For the same molecule, the IC50 (T type Cav 3.2) was 0.9 µM, the half-life [3, 10] was 4.01 h and the “% AUC Extrapolation” value [3, 6] was 7.5%. For the same molecule, the “AUC(0-x)/Dose” value [3, 6] was 45.0 ng·h/mL/mg/kg, the Cmax/Dose [3, 6] was 11.3 ng/mL/mg/kg and the “Time at which Cmax was observed (tmax)” value [3, 6] was 1.0 h. The “plasma concentration compared with mibefradil” value [3, 6] was ~ 0.3 fold, the “Area under concentration vs time curve (AUC) (0-x)” value [3, 9] was 1350 ng·h/mL and the IC50 (T type Cav 3.3) was 1.1 µM.

For O=C(NC(CCN1CC(Oc2nccc3ccccc23)CC1CO)c1ccc(F)cc1)C1CCC(F)(F)CC1 (stereo not shown) [YU253106], the IC50 (alt-NHEJ; [4]) was 1.4 µM, the IC50 (CYP3A4) was 14.5 µM and the selectivity ratio (CYP3A4; ratio) was 10.3. It also gave an IC50 (CYP2D6) of 2.3 µM and a selectivity ratio (CYP2D6; ratio) of 1.64.

With C[C@H]1COCCN1c1cc(C2(S(=O)(=O)C3CC3)CC2)nc(-c2ccc(NC(=S)NCCO)cc2)n1 [mTORC1/2 inhibitor, AZD 3147] the “selectivity index SI (CT IC50/alt-NHEJ IC50)” value (alt-NHEJ; ratio) was 7.22, the IC50 (alt-NHEJ; read-out: alt-NHEJ IC50, EJ-DR U2OS cells, text and figures) was 0.09 µM and the IC50 (HR; EJ-DR U2OS cells, text and figures) was 7.18 µM.
